Laboratory results as given in publication PMC8035258 (ChemMedChem, 2021).

Target: Mitochondrial respiratory complex II (Mus musculus, UniProt Q8K2B3+Q9CQA3+Q9CXV1+Q9CZB0)
Assay: Complex II inhibition assay
Format: biochemical
Details: mouse liver mitochondria, mean ±SD of n = 4; for inhibition at 100 µM: read-out: % Inhibition CII (100 μM), 100 μM

Mitochondrial respiratory complex II, sequence (Q8K2B3 43-664): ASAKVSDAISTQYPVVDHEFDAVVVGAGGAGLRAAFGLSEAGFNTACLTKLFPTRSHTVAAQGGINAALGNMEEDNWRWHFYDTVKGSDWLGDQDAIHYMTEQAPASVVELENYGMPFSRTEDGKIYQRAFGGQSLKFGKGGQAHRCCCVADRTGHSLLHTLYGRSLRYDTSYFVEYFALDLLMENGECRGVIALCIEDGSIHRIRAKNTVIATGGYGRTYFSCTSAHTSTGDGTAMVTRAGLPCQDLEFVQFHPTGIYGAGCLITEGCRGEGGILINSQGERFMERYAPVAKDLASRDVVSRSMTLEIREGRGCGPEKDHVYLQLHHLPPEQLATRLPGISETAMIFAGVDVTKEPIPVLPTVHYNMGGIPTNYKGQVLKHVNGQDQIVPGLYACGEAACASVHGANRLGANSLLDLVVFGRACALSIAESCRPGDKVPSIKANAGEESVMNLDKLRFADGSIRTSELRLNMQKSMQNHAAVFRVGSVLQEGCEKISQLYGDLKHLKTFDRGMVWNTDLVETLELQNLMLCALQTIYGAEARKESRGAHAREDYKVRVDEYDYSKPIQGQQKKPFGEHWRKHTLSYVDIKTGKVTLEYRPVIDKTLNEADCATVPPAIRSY
Mitochondrial respiratory complex II, sequence (Q9CQA3 31-282): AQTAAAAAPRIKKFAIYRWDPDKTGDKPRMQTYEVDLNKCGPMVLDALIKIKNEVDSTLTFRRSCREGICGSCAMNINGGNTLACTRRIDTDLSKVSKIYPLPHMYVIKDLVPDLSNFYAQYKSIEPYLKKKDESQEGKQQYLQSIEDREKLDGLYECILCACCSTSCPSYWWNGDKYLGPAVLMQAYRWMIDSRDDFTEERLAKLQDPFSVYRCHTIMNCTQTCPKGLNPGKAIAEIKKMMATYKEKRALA
Mitochondrial respiratory complex II, sequence (Q9CZB0 30-169): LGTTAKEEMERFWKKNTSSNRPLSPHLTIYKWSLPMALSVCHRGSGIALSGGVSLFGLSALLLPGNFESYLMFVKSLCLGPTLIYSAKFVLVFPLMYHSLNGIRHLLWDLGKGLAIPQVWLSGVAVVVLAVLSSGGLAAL
Mitochondrial respiratory complex II, sequence (Q9CXV1 57-159): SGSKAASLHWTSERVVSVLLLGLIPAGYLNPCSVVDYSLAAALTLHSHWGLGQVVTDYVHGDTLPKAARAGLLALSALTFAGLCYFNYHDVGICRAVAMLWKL

Row | Structure (SMILES) | inhibition at 100 µM [%] | % Inhibition CII (100 μM)
1 | Nc1ccc(CNC2=NS(=O)(=O)c3cc(Br)ccc3N2)cc1 [Compound 31c, 3-((4-Aminobenzyl)amino)-7-bromo-4H-benzo[e][1,2,4]thiadiazine 1,1-dioxide] | 9 ± 6 | 
2 | CC(C)C(C)NC1=NS(=O)(=O)c2ccc(Cl)cc2N1 (stereo not drawn) [Compound 15b, 6-Chloro-3-((3-methylbutan-2-yl)amino)-4H-benzo[e][1,2,4]thiadiazine 1,1-dioxide] | 0 | 
3 | O=S1(=O)N=C(NCc2ccccc2)Nc2ccccc21 [Compound 21d, 3-(Benzylamino)-4H-benzo[e][1,2,4]thiadiazine 1,1-dioxide] | 0 | 
4 | O=S1(=O)N=C(NCc2ccc(SC(F)(F)F)cc2)Nc2ccc(F)cc21 [Compound 38a, 7-Fluoro-3-((4-((trifluoromethyl)thio)benzyl)amino)-4H-benzo[e] [1,2,4]thiadiazine 1,1-dioxide] | 23 ± 12.3 | 
5 | O=S1(=O)N=C(NCc2ccccc2)Nc2ccc(Br)cc21 [Compound 21c, 3-(Benzylamino)-7-bromo-4H-benzo[e][1,2,4]thiadiazine 1,1-dioxide] | 36 ± 9 | 
6 | CSC1=NS(=O)(=O)c2cc(F)ccc2N1 [Compound 13a, 7-Fluoro-3-methylsulfanyl-4H-1,2,4-benzothiadiazine 1,1-dioxide] | 0 | 
7 | O=S1(=O)N=C(NCc2ccc(F)cc2)Nc2ccccc21 [Compound 17d, 3-((4-Fluorobenzyl)amino)-4H-benzo[e][1,2,4]thiadiazine 1,1-dioxide] | 7 ± 9.9 | 
8 | O=S1(=O)N=C(NCc2ccc(Cl)cc2)Nc2ccccc21 [Compound 16d, 3-((4-Chlorobenzyl)amino)-4H-benzo[e][1,2,4]thiadiazine 1,1-dioxide] | 0 | inactive
9 | CC(C)NC1=NS(=O)(=O)c2ccccc2N1 [Compound 14d, 3-(Isopropylamino)-4H-benzo[e][1,2,4]thiadiazine 1,1-dioxide] | 0 | 
10 | O=S1(=O)NC(=S)Nc2ccccc21 [Compound 12d, 2H-benzo[e][1,2,4]thiadiazine-3(4H)-thione 1,1-dioxide] | 2 ± 5.8 | 
11 | CSC1=NS(=O)(=O)c2cc(F)ccc2N1C [Compound 42a, 7-Fluoro-4-methyl-3-(methylthio)-4H-benzo[e][1,2,4]thiadiazine 1,1-dioxide] | 6 ± 13.4 | 
12 | CC(C)NC1=NS(=O)(=O)c2ccccc2N1C [Compound 43d, 3-(Isopropylamino)-4-methyl-4H-benzo[e][1,2,4]thiadiazine 1,1-dioxide] | 0 | 
13 | CC(C)C(C)NC1=NS(=O)(=O)c2cc(F)ccc2N1 (stereo not drawn) [Compound 15a, 7-Fluoro-3-((3-methylbutan-2-yl)amino)-4H-benzo[e][1,2,4]thiadiazine 1,1-dioxide] | 5 ± 4.5 | 
14 | O=S1(=O)N=C(NCc2ccc(F)cc2)Nc2cc(Cl)ccc21 [Compound 17b, 6-Chloro-3-((4-fluorobenzyl)amino)-4H-benzo[e][1,2,4]thiadiazine 1,1-dioxide] | 0 | 
15 | O=S1(=O)N=C(NCc2ccc(F)cc2)Nc2ccc(Br)cc21 [Compound 17c, 7-Bromo-3-((4-fluorobenzyl)amino)-4H-benzo[e][1,2,4]thiadiazine 1,1-dioxide] | 35 ± 9.9 | 
16 | COc1ccccc1CNC1=NS(=O)(=O)c2ccc(Cl)cc2N1 [Compound 26b, 6-Chloro-3-((2-methoxybenzyl)amino)-4H-benzo[e][1,2,4]thiadiazine 1,1-dioxide] | 0 | 
17 | O=C1Nc2ccc(Br)cc2S(=O)(=O)N1 [Compound 11c, 7-Bromo-3-oxo-3,4-dihydro-2H-1,2,4-benzothiadiazine1,1-dioxide] | 0 | 
18 | COc1ccc(CNC2=NS(=O)(=O)c3cc(F)ccc3N2)cc1 [Compound 20a, 7-Fluoro-3-((4-methoxybenzyl)amino)-4H-benzo[e][1,2,4]thiadiazine 1,1-dioxide] | 0 | 
19 | COc1ccc(CCNC2=NS(=O)(=O)c3cc(Br)ccc3N2)cc1 [Compound 34c, 7-Bromo-3-((4-methoxyphenethyl)amino)-4H-benzo[e][1,2,4]thiadiazine 1,1-dioxide] | 17 ± 3.3 | 
20 | CC(C)NC1=NS(=O)(=O)c2cc(F)ccc2N1 [Compound 14a, 7-Fluoro-3-isopropylamino-4H-1,2,4-benzothiadiazine 1,1-dioxide] | 4 ± 6.9 | 
21 | O=S1(=O)N=C(NCc2ccc(F)cc2)Nc2ccc(F)cc21 [Compound 17a, 7-Fluoro-3-((4-fluorobenzyl)amino)-4H-benzo[e][1,2,4]thiadiazine 1,1-dioxide] | 1 ± 6.2 | 
22 | O=S1(=O)N=C(NC2CCCC2)Nc2ccc(F)cc21 [Compound 22a, 7-Fluoro-3-(cyclopentylamino)-4H-benzo[e][1,2,4]thiadiazine 1,1-dioxide] | 1 ± 4.7 | 
23 | O=S1(=O)N=C(NCCc2ccc(Cl)cc2)Nc2ccc(F)cc21 [Compound 37a, 3-((4-Chlorophenethyl)amino)-7-fluoro-4H-benzo[e][1,2,4]thiadiazine 1,1-dioxide] | 34 ± 18.4 | 
24 | COc1cccc(CNC2=NS(=O)(=O)c3cc(Br)ccc3N2)c1 [Compound 28c, 7-Bromo-3-((3-methoxybenzyl)amino)-4H-benzo[e][1,2,4]thiadiazine 1,1-dioxide] | 24 ± 5.2 | 

Row | Structure (SMILES) | inhibition at 100 µM [%] | % Inhibition CII (100 μM)
25 | CCNC1=NS(=O)(=O)c2ccc(Cl)cc2N1 [Compound 19b, 6-Chloro-3-(ethylamino)-4H-benzo[e][1,2,4]thiadiazine 1,1-dioxide] | 0 | 
26 | CC(C)NC1=NS(=O)(=O)c2cc(Br)ccc2N1 [Compound 14c, 7-Bromo-3-isopropylamino-4H-1,2,4-benzothiadiazine 1,1-dioxide] | 0 | 
27 | Cc1ccc(CNC2=NS(=O)(=O)c3cc(Br)ccc3N2)cc1 [Compound 27c, 7-Bromo-3-((4-methylbenzyl)amino)-4H-benzo[e][1,2,4]thiadiazine 1,1-dioxide] | 29 ± 6.2 | 
28 | O=S1(=O)NC(=S)Nc2ccc(F)cc21 [Compound 12a, 7-Fluoro-3-thioxo-3,4-dihydro-2H-1,2,4-benzothiadiazine 1,1-dioxide] | 0 | 
29 | O=S1(=O)N=C(NCCc2ccccc2)Nc2cc(Cl)ccc21 [Compound 18b, 6-Chloro-3-(phenethylamino)-4H-benzo[e][1,2,4]thiadiazine 1,1-dioxide] | 19 ± 22.6 | 
30 | CCNC1=NS(=O)(=O)c2cc(F)ccc2N1 [Compound 19a, 3-(Ethylamino)-7-fluoro-4H-benzo[e][1,2,4]thiadiazine 1,1-dioxide] | 0 | 
31 | O=S1(=O)N=C(NCc2ccc(C(F)(F)F)cc2)Nc2ccc(F)cc21 [Compound 25a, 7-Fluoro-3-((4-(trifluoromethyl)benzyl)amino)-4H-benzo[e][1,2,4]thiadiazine 1,1-dioxide] | 6 ± 15.7 | 
32 | CC(C)NC1=NS(=O)(=O)c2ccc(Cl)cc2N1 [Compound 14b, 6-Chloro-3-isopropylamino-4H-1,2,4-benzothiadiazine 1,1-dioxide] | 0 | 
33 | O=S1(=O)N=C(NCc2ccc(OC(F)(F)F)cc2)Nc2ccc(F)cc21 [Compound 30a, 7-Fluoro-3-((4-(trifluoromethoxy)benzyl)amino)-4H-benzo[e][1,2,4] thiadiazine 1,1-dioxide] | 2 ± 6.9 | 
34 | O=S1(=O)N=C(NCCc2ccccc2)Nc2ccc(F)cc21 [Compound 18a, 7-Fluoro-3-(phenethylamino)-4H-benzo[e][1,2,4]thiadiazine 1,1-dioxide] | 4 ± 15.5 | 
35 | O=S1(=O)N=C(NCc2ccccc2C(F)(F)F)Nc2ccc(Br)cc21 [Compound 35c, 7-Bromo-3-((2-(trifluoromethyl)benzyl)amino)-4H-benzo[e][1,2,4]thiadiazine 1,1-dioxide] | 29 ± 5.9 | 
36 | C=CCNC1=NS(=O)(=O)c2ccccc2N1 [Compound 32d, 3-(Allylamino)-4H-benzo[e][1,2,4]thiadiazine 1,1-dioxide] | 2 ± 12.3 | 
37 | O=C1Nc2ccccc2S(=O)(=O)N1 [Compound 11d, 2H-benzo[e][1,2,4]thiadiazin-3(4H)-one 1,1-dioxide] | 0 | 
38 | CSC1=NS(=O)(=O)c2cc(Br)ccc2N1 [Compound 13c, 7-Bromo-3-methylsulfanyl-4H-1,2,4-benzothiadiazine 1,1-dioxide] | 10 ± 2.7 | 
39 | O=S1(=O)N=C(NC2CCCC2)Nc2ccc(Br)cc21 [Compound 22c, 7-Bromo-3-(cyclopentylamino)-4H-benzo[e][1,2,4]thiadiazine 1,1-dioxide] | 25 ± 7.8 | 
40 | CSC1=NS(=O)(=O)c2ccccc2N1 [Compound 13d, 3-(Methylthio)-4H-benzo[e][1,2,4]thiadiazine 1,1-dioxide] | 4 ± 5.5 | 
41 | C=CCNC1=NS(=O)(=O)c2ccc(Cl)cc2N1 [Compound 32b, 3-(Allylamino)-6-chloro-4H-benzo[e][1,2,4]thiadiazine 1,1-dioxide] | 0 | 
42 | CCNC1=NS(=O)(=O)c2cc(Br)ccc2N1 [Compound 19c, 7-Bromo-3-(ethylamino)-4H-benzo[e][1,2,4]thiadiazine 1,1-dioxide] | 11 ± 6.9 | 
43 | CSC1=NS(=O)(=O)c2ccc(Cl)cc2N1 [Compound 13b, 6-Chloro-3-methylsulfanyl-4H-1,2,4-benzothiadiazine 1,1-dioxide] | 24 ± 0.7 | 
44 | CSC1=NS(=O)(=O)c2ccccc2N1C [Compound 42d, 4-Methyl-3-(methylthio)-4H-benzo[e][1,2,4]thiadiazine 1,1-dioxide] | 0 | 
45 | CCNC1=NS(=O)(=O)c2ccccc2N1 [Compound 19d, 3-(Ethylamino)-4H-benzo[e][1,2,4]thiadiazine 1,1-dioxide] | 0 | 
46 | O=S1(=O)N=C(NCCCc2ccccc2)Nc2ccccc21 [Compound 23d, 3-((3-Phenylpropyl)amino)-4H-benzo[e][1,2,4]thiadiazine 1,1-dioxide] | 0 | 
47 | COc1ccc(CNC2=NS(=O)(=O)c3ccccc3N2)cc1 [Compound 20d, 3-((4-Methoxybenzyl)amino)-4H-benzo[e][1,2,4]thiadiazine 1,1-dioxide] | 0 | 
